The subject of assay [1] is SRB (sulfate reducing bacteria). The experiment in a line: Biocide efficacy study on high TDS (10%) fluid sample, Rapid SRB Detection Pouches (thin-film culture device). The conditions noted are these: 4-hour biocide contact. The assay is classed as cell-based.
Method: A biocide efficacy study on a high TDS (10%) fluid sample using a thin-film culture device was evaluated and compared to the traditional bug-bottle approach. The high TDS fluid sample was inoculated with mature SRB. Seventy-two 3 mL doses of the fluid sample were then introduced into 72 respective Rapid SRB Detection Pouches.
(§1) The fluid samples were then incubated at a temperature of 32° C. After approximately 24 hours of inoculation, the SRB count was measured using the incubation and referencing procedure of Example 1. The bug bottle numbers were determined by counting the number of bottles in a serial dilution which had formed a visible black precipitate.
The test system is the same in assay [2]. The experiment in a line: Biocide efficacy study on low TDS (1%) fluid sample, Rapid SRB Detection Pouches (thin-film culture device). Conditions: for reduction in SRB count: 24-hour biocide contact. In kind it is cell-based.
Method: In this example, an assessment of biological contamination was performed using culture devices including indicator reagents. More specifically, SRB enumeration in various water samples including SRB was performed using thin-film culture devices (“pouches”). Three milliliters of two samples, Sample A and Sample B, were introduced into separate Rapid SRB Detection Pouches (manufactured by 3M™). The pouches were sealed and incubated at 32° C. The pouches were incubated upright to allow the precipitate to settle toward the bottom of pouch. The SRB count of each sample was measured at multiple time intervals using a visual technique where the color of the samples was compared to reference colors as shown in FIGS. 2A and 2B. The degree of blackening of the sample at certain time points compared to the reference is indicative of SRB count.
A biocide efficacy study on a low TDS (1%) fluid sample using a thin-film culture device was evaluated and compared to the traditional bug-bottle approach. The low TDS fluid sample was inoculated with mature SRB. Seventy-two 3 mL doses of the fluid sample were then introduced into 72 Rapid SRB Detection Pouches. […] The dosages were based on the standard US Environmental Protection Agency (EPA) recommendations for each respective biocide:
as §1
The mark [3] stands for this setting: dose level not clearly singled out.

Consider `CCCCCCCCCC[N+](C)(C)CCCCCCCCCC.[Cl-]` [Quat, didecyldimethyl ammonium chloride], for which, in assay [1] (setting [3]), the “reduction in SRB count in comparison to the control” value was “all but the Quat and THPS low dose biocide groups demonstrated a reduction in SRB count”. Further, in assay [2] (setting [3]), the “reduction in SRB count” value is “all but the didecyldimethyl ammonium chloride and THPS low dose biocide groups demonstrated a reduction in SRB count”.
On to “tetrakis(hydroxymethyl)phosphonium sulfate [THPS]”, for which the “reduction in SRB count in comparison to the control” value in assay [1] (low dose (THPS Low 25 ppm)) was “all but the Quat and THPS low dose biocide groups demonstrated a reduction in SRB count”; in assay [2] (4-hour biocide contact, low dose (THPS Low 25 ppm)) it was “all but the THPS Low biocide group demonstrated a reduction in SRB count”. In addition, in assay [2] (low dose (THPS Low 25 ppm)), the “reduction in SRB count” value is “all but the didecyldimethyl ammonium chloride and THPS low dose biocide groups demonstrated a reduction in SRB count”.

(Values after patent US12098416B2, “Assessment of biological contamination and biological contamination treatment” (Halliburton Energy Services, Inc., priority 2019, dated 2024).)
